Key:
[1] = target: T1, angiotensin-converting enzyme (Homo sapiens, UniProt P12821); assay: Angiotensin I-converting enzyme-inhibiting activity by ACE Kit-WST (Dojindo Laboratories), residual activity; format: biochemical; details: for angiotensin-converting enzyme-inhibiting action brought about by the amino acid on addition of the cyclic dipeptide: cyclic dipeptide added in a given amount to the amino acid, summary of Tables 1 to 4
T1 construct: purchased Dojindo Laboratories ACE Kit-WST
Protocol: The enhancing effect of a cyclic dipeptide on the angiotensin-converting enzyme-inhibiting action of an amino acid was evaluated. Specifically, as for the inhibiting effects of amino acids and cyclic dipeptides, angiotensin I-converting enzyme-inhibiting activities were measured by using ACE Kit-WST (Dojindo Laboratories) according to the instruction manual attached to the kit. The amino acids were studied at a concentration of 1000 μM, 3000 μM, or 5000 μM, and the cyclic dipeptides were studied at a concentration of 20 μM, 50 μM, 100 μM, 250 μM, or 500 μM. Their-inhibiting activities were evaluated as the residual activity of angiotensin-converting enzyme calculated according to expression 1 given below. A control supplemented with distilled water instead of the aqueous cyclic dipeptide solution was used. Chemically synthesized samples were used as the cyclic dipeptides.
Residual activity (%)=(Absorbance at 450 nm from the cyclic dipeptide-added group/Absorbance from 450 nm from the control)×100 (Expression 1)

[2] = tested on: spontaneously hypertensive rats; details: oral administration; cited from earlier work
[3] = amino acid alone, no cyclic dipeptide

T1 sequence (P12821 30-1306, species assumed): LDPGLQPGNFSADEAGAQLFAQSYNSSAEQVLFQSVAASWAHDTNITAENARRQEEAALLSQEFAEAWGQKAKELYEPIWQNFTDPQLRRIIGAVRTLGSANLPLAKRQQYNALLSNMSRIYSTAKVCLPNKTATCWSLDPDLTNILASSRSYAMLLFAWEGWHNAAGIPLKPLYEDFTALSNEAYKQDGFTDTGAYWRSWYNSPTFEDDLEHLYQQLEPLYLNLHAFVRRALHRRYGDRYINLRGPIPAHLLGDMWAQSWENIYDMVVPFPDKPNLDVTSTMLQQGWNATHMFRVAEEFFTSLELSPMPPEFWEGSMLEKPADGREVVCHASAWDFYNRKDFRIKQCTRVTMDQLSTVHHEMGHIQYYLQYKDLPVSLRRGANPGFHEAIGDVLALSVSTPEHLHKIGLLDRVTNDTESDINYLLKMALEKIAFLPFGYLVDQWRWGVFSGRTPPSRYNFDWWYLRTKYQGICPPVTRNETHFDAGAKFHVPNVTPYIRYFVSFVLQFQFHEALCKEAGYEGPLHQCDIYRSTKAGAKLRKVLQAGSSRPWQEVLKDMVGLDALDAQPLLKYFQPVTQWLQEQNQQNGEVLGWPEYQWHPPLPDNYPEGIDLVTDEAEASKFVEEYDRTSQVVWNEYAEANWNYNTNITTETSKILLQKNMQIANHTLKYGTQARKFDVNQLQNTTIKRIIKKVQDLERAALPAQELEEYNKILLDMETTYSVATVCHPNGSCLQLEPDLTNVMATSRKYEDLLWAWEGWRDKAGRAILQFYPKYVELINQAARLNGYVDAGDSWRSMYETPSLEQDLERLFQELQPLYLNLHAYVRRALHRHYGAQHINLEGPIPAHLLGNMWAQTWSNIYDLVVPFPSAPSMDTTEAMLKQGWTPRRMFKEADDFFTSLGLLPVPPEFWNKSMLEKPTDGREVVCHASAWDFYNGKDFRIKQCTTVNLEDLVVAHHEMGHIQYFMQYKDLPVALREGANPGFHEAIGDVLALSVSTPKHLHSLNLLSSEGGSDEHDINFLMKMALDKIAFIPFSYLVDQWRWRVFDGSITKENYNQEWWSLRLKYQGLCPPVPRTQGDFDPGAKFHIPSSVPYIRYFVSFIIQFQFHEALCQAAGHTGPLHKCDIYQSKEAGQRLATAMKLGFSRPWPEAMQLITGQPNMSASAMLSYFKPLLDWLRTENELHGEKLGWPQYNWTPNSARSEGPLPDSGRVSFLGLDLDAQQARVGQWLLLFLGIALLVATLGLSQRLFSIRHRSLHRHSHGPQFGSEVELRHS

Molecule: N=C(N)NCCC[C@H](N)C(=O)O [Arginine, arginine]
- remaining activity at 1000 µM [1, 3]: 84.8%
- remaining activity at 5000 µM [1, 3]: 60.2%

Molecule: CC(C)C[C@H](N)C(=O)O [Leucine, leucine]
- remaining activity at 1000 µM [1, 3]: 83.2%
- remaining activity at 5000 µM [1, 3]: 43.3%

Molecule: C[C@@H](O)[C@H](N)C(=O)O [Threonine, threonine]
- remaining activity at 1000 µM [1, 3]: 86.6%
- remaining activity at 5000 µM [1, 3]: 69%

Molecule: N[C@@H](Cc1ccc(O)cc1)C(=O)O [Tyrosine, tyrosine]
- remaining activity at 1000 µM [1, 3]: 94%
- remaining activity at 3000 µM ([1]; amino acid alone, 3000 μM, no cyclic dipeptide): 90.6%

Molecule: N[C@@H](Cc1c[nH]cn1)C(=O)O [histidine]
- mean arterial pressure [2]: decrease

Molecule: cyclo-arginyl-tyrosine [Cyclo(Arg-Tyr)]
- angiotensin-converting enzyme-inhibiting action brought about by the amino acid on addition of the cyclic dipeptide [1]: enhanced

Molecule: cyclo-glutamyl-histidine [Cyclo(Glu-His)]
- angiotensin-converting enzyme-inhibiting action brought about by the amino acid on addition of the cyclic dipeptide [1]: enhanced

Molecule: cyclo-isoleucyl-serine [Cyclo(Ile-Ser)]
- angiotensin-converting enzyme-inhibiting action brought about by the amino acid on addition of the cyclic dipeptide [1]: enhanced
